Test results from PMC11465068 (Journal of Lipid Research, 2024).

Target: T1, rhSphK1 (recombinant human sphingosine kinase 1) (Homo sapiens, UniProt Q9NYA1)
T1 construct: gene SPHK1; commercial recombinant human enzyme from two manufacturers
Assay: S1P formation by LC-MS/MS
Format: biochemical
Details: […] sphingosine, […] ATP, […] MgCl2, […] °C, […] h; range over two enzyme sources

T1 sequence (Q9NYA1 whole entry): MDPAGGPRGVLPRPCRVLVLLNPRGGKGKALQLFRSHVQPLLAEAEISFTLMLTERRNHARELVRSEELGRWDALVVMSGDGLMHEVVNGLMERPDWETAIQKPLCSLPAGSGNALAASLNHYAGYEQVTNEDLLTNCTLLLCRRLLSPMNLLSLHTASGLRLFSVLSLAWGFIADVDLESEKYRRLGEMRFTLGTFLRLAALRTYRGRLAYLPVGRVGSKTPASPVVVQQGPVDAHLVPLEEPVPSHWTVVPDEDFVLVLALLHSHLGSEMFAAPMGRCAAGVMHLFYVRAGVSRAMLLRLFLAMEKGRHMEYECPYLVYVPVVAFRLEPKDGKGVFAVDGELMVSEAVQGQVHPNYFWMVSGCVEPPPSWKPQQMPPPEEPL

SMILES: O=C(NCc1ccncc1)C12CC3CC(C1)CC(c1ccc(Cl)cc1)(C3)C2 [ABC294640]
- % reduction of S1P formation at 50 μM: 32-34%
